Assays:
Assay in all cases: growth inhibition of complemented yeast YUG37::LbCYP51B, absorbance at […] nm
Type in all cases: cell-based, Plenodomus biglobosus (Leptosphaeria biglobosa)
Conditions in all cases: whole-cell growth; SD GAL + RAF with doxycycline (native CYP51 repressed), 30 °C, 6 days; SD of two biological replicates
LbCYP51B [1] = system: T1, LbCYP51B
T1 construct: gene CYP51B; protein identical in all 8 isolates; gene 1642 bp with one 58 bp intron

LbCYP51B [2] = system: T1, LbCYP51B; remark: listed apart in the source
LbCYP51B [3] = system: T1, LbCYP51B; remark: listed apart in the source

Question: With `C[Si](Cn1cncn1)(c1ccc(F)cc1)c1ccc(F)cc1` [flusilazole] as the compound, how does the Flusilazole (LbCYP51B [1]) read?
Answer: Its Flusilazole is 0.032 (0.0056) µg ml^−1.

Question: For `OC(Cc1ccccc1Cl)(Cn1cncn1)C1(Cl)CC1` (stereo not drawn) [prothioconazole-desthio], which Prothioconazole-desthio (LbCYP51B [2]) is on record?
Answer: Its Prothioconazole-desthio is 0.0004 (0.0002) µg ml^−1.

Question: For `CC(C)(C)C(O)(CCc1ccc(Cl)cc1)Cn1cncn1` (stereo not drawn) [tebuconazole], which Tebuconazole (LbCYP51B [3]) is on record?
Answer: Its Tebuconazole is 0.0062 (0.0005) µg ml^−1.
